Source: patent publication US9828338B2, “Carbamate derivatives of lactam based N-acylethanolamine acid amidase (NAAA) inhibitors” (The Regents of the University of California, priority 2013, dated 2017)
Like-named read-outs stand apart in the source and are kept apart here.

Tests used:
Assay type in all cases: biochemical
human NAAA = target: T1, human NAAA (Homo sapiens, UniProt Q02083); test: Fluorogenic h-NAAA assay
T1 construct: made in house; host or cells: HEK293 cells, stably transfected; soluble lysosomal fraction used as enzyme source
T1 sequence (Q02083 29-359): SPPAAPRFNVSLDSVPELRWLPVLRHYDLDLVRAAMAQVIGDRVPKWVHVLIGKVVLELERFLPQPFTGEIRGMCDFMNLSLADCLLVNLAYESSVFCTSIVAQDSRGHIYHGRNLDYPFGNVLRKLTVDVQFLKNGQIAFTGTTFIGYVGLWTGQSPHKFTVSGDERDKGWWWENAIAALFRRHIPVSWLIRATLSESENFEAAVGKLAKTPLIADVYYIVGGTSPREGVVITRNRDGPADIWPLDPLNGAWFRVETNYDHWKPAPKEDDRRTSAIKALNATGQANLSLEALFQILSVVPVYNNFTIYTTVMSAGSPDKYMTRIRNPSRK
Procedure: Hek293 cells stably transfected with the human NAAA coding sequence cloned from a human spleen cDNA library were used as enzyme source. Recombinant HEK-hNAAA pellets were resuspended in homogenizing buffer, and sonicated. Samples were centrifuged at 800×g for 15 min at 4° C. and the resultant supernatants were then ultracentrifuged at 12,000×g for 30 min at 4° C. The pellets were resuspended in PBS pH 7.4 on ice and subjected to a freeze/thaw cycle at −80° C. The suspension was finally centrifuged at 105,000×g for 1 h at 4° C. Protein concentration was measured and samples aliquoted and stored at −80° C. until use.
The assay was run in Optiplate 96-wells black plates, in a total reaction volume of 200 μL. NAAA protein preparation (4.0 μg) was pre-incubated for 10 min with various concentrations of test compounds or vehicle control (5% DMSO) in 100 mM citrate/phosphate buffer (pH 4.5) containing 3.0 mM DTT, 0.1% Triton X-100, 0.05% BSA, 150 mM NaCl. N-(4-methyl-2-oxo-chromen-7-yl)-hexadecanamide was used as a substrate (5.0 μM) and the reaction carried over for 30 min at 37° C. The samples were then read in a Perkin Elmer Envision plate reader using an excitation wavelength of 360 nm and emission 460 nm. IC50 values were calculated by non-linear regression analysis of log [concentration]/inhibition curves using GraphPad Prism 5 (GraphPad Software Inc., CA—USA) applying a standard slope curve fitting.

r-NAAA = target: T2, r-NAAA (Rattus norvegicus, UniProt Q5KTC7); test: UPLC/MS r-NAAA assay
T2 construct: Lysosomal NAAA protein preparation was obtained by homogenizing male Sprague-Dawley rat lungs; tissue Charles River (animals); host or cells: male Sprague-Dawley rat lung, soluble lysosomal fraction
T2 sequence (Q5KTC7 34-362): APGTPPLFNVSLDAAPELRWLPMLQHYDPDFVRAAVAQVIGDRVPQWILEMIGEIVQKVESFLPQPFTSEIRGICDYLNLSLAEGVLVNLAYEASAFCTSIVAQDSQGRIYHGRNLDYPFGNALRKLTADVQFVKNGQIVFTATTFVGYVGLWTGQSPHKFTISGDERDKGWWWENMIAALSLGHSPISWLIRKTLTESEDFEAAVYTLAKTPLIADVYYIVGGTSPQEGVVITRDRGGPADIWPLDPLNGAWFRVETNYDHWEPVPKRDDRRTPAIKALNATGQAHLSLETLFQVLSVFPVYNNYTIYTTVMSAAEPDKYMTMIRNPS
Procedure: Lysosomal NAAA protein preparation was obtained by homogenizing male Sprague-Dawley rat lungs (Charles River) in 20 mM Tris-HCl buffer pH 7.4 containing 0.32M sucrose. […] Supernatants were then centrifuged at 12,000 xg for 30 min at 4° C. Pellets were then resuspended in PBS pH 7.4 and subjected to a freeze/thaw cycle at −80° C. The suspension was finally centrifuged at 105,000×g for 1 h at 4° C. The supernatant was then used in the enzymatic assay.
NAAA protein preparation was pre-incubated with various concentrations of test compounds or vehicle control in 100 mM NaH2PO4/Citrate buffer, 1% Triton-X, 3 mM DTT (pH 4.5) for 30 min at 37° C. Samples were then incubated with heptadecenoylethanolamide (50 μM, Avanti Polar Lipids) at 37° C. for 30 min. The reaction was terminated by addition of cold methanol containing heptadecanoic acid (NuCheck Prep) as internal standard. Samples were then analyzed by UPLC/MS (Acquity, Waters). […] The column temperature was 40° C. Electrospray ionization was in the negative mode, capillary voltage was 0.5 kV, cone voltage was […], desolvation temperature was 500° C. N2 was used as drying gas at a flow rate of 1000 L/hour and a temperature of 500° C. […] Calibration curves were generated using commercial heptadecenoic acid (NuCheck Prep) Inhibition of NAAA activity was calculated as reduction of heptadecenoic acid in the samples compared to vehicle controls. IC50 values were calculated by non-linear regression analysis of log [concentration]/inhibition curves using GraphPad Prism 5 (GraphPad Software Inc., CA—USA) applying a standard slope curve fitting.

Rat AC (r-AC) = target: T3, Rat AC (r-AC) (Rattus norvegicus, UniProt Q6P7S1); test: Rat AC (r-AC) assay; conditions: for IC50: read-out: r-AC UPLC/MS assay IC50
T3 construct: V5 (C); His (C); made in house; host or cells: HEK293 cells transfected with pEF6-rAC-V5/His, G418 selected; soluble lysosomal fraction
T3 sequence (Q6P7S1 21-394): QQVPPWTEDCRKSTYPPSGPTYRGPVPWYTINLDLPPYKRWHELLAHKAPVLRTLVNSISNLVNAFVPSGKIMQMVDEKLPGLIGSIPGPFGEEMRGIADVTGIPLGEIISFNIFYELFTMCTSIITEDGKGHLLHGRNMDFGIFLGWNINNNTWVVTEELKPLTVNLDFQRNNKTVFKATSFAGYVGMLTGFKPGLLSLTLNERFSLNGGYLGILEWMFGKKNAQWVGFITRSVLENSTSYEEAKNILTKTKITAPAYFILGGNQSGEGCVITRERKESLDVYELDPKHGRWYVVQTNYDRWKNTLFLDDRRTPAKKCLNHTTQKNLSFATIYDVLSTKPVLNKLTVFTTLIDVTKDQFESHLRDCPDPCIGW
Procedure: The selectivity of selected compounds versus Acid Ceramidase (AC) was determined.
Rat AC (r-AC) was cloned from a brain cDNA library using primers based on the sequence obtained from the National Center for Biotechnology Information (NCBI) database: 5′rAC (5′-[…]-3′) (SEQ ID NO:1) and 3′rAC (5′-[…]-3′) (SEQ ID NO:2). The PCR (High Fidelity PCR Master, Roche) product was subcloned into a pEF6-V5/His vector (Invitrogen) to construct a mammalian expression vector encoding V5/His-tagged rat AC. HEK293 cells were transfected with pEF6-rAC-V5/His using Super-Fect reagent (Qiagen) and screened with G418 (0.3 mg/mL). Cells were suspended in 20 mM Tris HCl (pH 7.5) containing 0.32M sucrose, sonicated and centrifuged at 800×g for 15 minutes at 4° C. The supernatants were centrifuged again at 12,000×g for 30 minutes at 4° C. The pellets were suspended in phosphate-buffered saline (PBS) and subjected to 2 freeze-thaw cycles at −80° C. The suspensions were centrifuged at 105,000×g for 1 hour at 4° C. The supernatants containing recombinant AC were kept at −80° C. until use. Protein concentration was measured using the bicinchoninic acid (BCA) assay (Pierce). Recombinant rat AC (50 μg) was preincubated with inhibitors (final DMSO concentration 1%) in assay buffer (100 mM sodium phosphate, 0.1% Nonidet P-40, 150 mM NaCl, 3 mM DTT, 100 mM sodium citrate, pH 4.5) for 30 minutes at 37° C. Reactions were started by the addition of 100 μM N-lauroyl ceramide (Nu-Chek Prep, Elysian, Minn.) and carried on for 30 minutes at 37° C. Reactions were stopped by addition of a mixture of chloroform/methanol (2:1, vol/vol) containing 1 nmol of heptadecanoic acid (HDA; NuChek Prep). The organic phases were collected, dried under N2, and analyzed by LC-MS in the negative-ion mode using […] (HDA) as internal standard (m/z=199 for lauric acid, m/z=269 for HDA). […]. The column temperature was 50° C. Electrospray ionization (ESI) was in the negative mode, capillary voltage as 4 kV, and fragmentor voltage was 100 V. N2 was used as drying gas at a flow rate of 13 L/min and a temperature of 350° C. Nebulizer pressure was set at 60 psi. We monitored [M-H]− in the selected-ion monitoring (SIM) mode using HDA as internal standard. Calibration curves were generated using commercial lauric acid (Nu-Chek Prep; m/z=199).

[1] = @ 10 μM, read-out: r-AC UPLC/MS assay % inhib.

O=C(N[C@H]1CNC1=O)OCc1ccc(C2CC3CCC2C3)cc1 (mixture of isomers) [Example 56, [4-(1R,2R,4S)- and (1S,2S,4R)-Norbornan-2-yl-phenyl)]-methyl-N-[(3S)-2-oxoazetidin-3-yl]-carbamate]
IC50 (human NAAA): 39 nM | IC50 (r-NAAA): 16 nM

CCCCC1CCC(OC(=O)N[C@H]2CNC2=O)CC1 (mixture of isomers) [Example 61, (1s,4R) and (1r,4S)-(4-Butylcyclohexyl)-N-[(3S)-2-oxoazetidin-3-yl]-carbamate]
IC50 (human NAAA): 323 nM | IC50 (r-NAAA): 700 nM

CCCCCCCOC(=O)N[C@H]1CNC1=O [Example 1, Heptyl-N-[(3S)-2-oxoazetidin-3-yl]-carbamate]
inhibition at 1 µM (Rat AC (r-AC); @ 1 μM, read-out: r-AC UPLC/MS assay % inhib.): 37% | IC50 (r-NAAA): 700 nM

CCCCC/C=C/CCOC(=O)N[C@H]1CNC1=O [Example 9, [(E)-Non-3-enyl]-N-[(3S)-2-oxoazetidin-3-yl]-carbamate]
IC50 (human NAAA): 78 nM | IC50 (r-NAAA): 180 nM

CCCCC/C=C\CCOC(=O)N[C@H]1CNC1=O [Example 10, [(Z)-Non-3-enyl]-N-[(3S)-2-oxoazetidin-3-yl]-carbamate]
IC50 (human NAAA): 76 nM | IC50 (r-NAAA): 250 nM

O=C(N[C@H]1CNC1=O)OCCCCc1ccccc1 [Example 13, 4-Phenylbutyl-N-[(3S)-2-oxoazetidin-3-yl]-carbamate]
IC50 (human NAAA): 930 nM | IC50 (r-NAAA): 2430 nM

O=C(N[C@H]1CNC1=O)OCc1ccc(-c2ccccc2)cc1 [Example 17, (4-Phenylphenyl)-methyl-N-[(3S)-2-oxoazetidin-3-yl]-carbamate]
IC50 (Rat AC (r-AC)): 20100 nM | IC50 (r-NAAA): 310 nM

O=C(N[C@H]1CNC1=O)OCCCC1CCCC1 [Example 21, 3-Cyclopentylpropyl-N-[(3S)-2-oxoazetidin-3-yl]-carbamate]
IC50 (human NAAA): 97 nM | IC50 (r-NAAA): 220 nM

COc1ccc(CCCCOC(=O)N[C@H]2CNC2=O)cc1 [Example 22, 4-(4-Methoxyphenyl)-butyl-N-[(3S)-2-oxoazetidin-3-yl]-carbamate]
IC50 (human NAAA): 573 nM | IC50 (r-NAAA): 790 nM

CCCCCCCCCOC(=O)N[C@H]1CNC1=O [Example 25, Nonyl-N-[(3S)-2-oxoazetidin-3-yl]-carbamate]
IC50 (human NAAA): 17 nM | IC50 (r-NAAA): 40 nM

CCCCCCCCCCOC(=O)N[C@H]1CNC1=O [Example 30, Decyl-N-[(3S)-2-oxoazetidin-3-yl]-carbamate]
IC50 (human NAAA): 25 nM | IC50 (r-NAAA): 55 nM

O=C(N[C@H]1CNC1=O)OCc1ccc(C2CCCCC2)cc1 [Example 31, (4-Cyclohexylphenyl)-methyl-N-[(3S)-2-oxoazetidin-3-yl]-carbamate]
IC50 (Rat AC (r-AC)): 21700 nM | IC50 (r-NAAA): 28 nM

O=C(N[C@H]1CNC1=O)OCc1ccc(Cc2ccccc2)cc1 [Example 34, (4-Benzylphenyl)-methyl-N-[(3S)-2-oxoazetidin-3-yl]-carbamate]
IC50 (human NAAA): 230 nM | IC50 (r-NAAA): 300 nM

O=C(N[C@H]1CNC1=O)OCc1ccc(C(=O)c2ccccc2)cc1 [Example 52, (4-Benzoylphenyl)-methyl-N-[(3S)-2-oxoazetidin-3-yl]-carbamate]
IC50 (human NAAA): 639 nM | IC50 (r-NAAA): 420 nM

O=C(N[C@H]1CNC1=O)OCc1ccc(C23CC4CC(CC(C4)C2)C3)cc1 [Example 58, [4-(1-Adamantyl)-phenyl]-methyl-N-[(3S)-2-oxoazetidin-3-yl]-carbamate]
IC50 (human NAAA): 2100 nM | IC50 (r-NAAA): 2700 nM

CCCCOc1ccc(COC(=O)N[C@H]2CNC2=O)cc1 [Example 63, (4-Butoxyphenyl)-methyl-N-[(3S)-2-oxoazetidin-3-yl]-carbamate]
IC50 (human NAAA): 104 nM | IC50 (r-NAAA): 240 nM

C[C@@H]1NC(=O)[C@H]1NC(=O)OCCCCC1CCCCC1 [Example 72, 4-Cyclohexylbutyl-N-[(2S,3S)-2-methyl-4-oxo-azetidin-3-yl]-carbamate]
inhibition at 10 µM (Rat AC (r-AC); [1]): 20% | IC50 (r-NAAA): 50 nM

C[C@@H]1NC(=O)[C@H]1NC(=O)OCc1ccc(-c2ccccc2)cc1 [Example 73, (4-Phenylphenyl)-methyl-N-[(2S,3S)-2-methyl-4-oxo-azetidin-3-yl]-carbamate]
inhibition at 10 µM (Rat AC (r-AC); read-out: r-AC UPLC/MS assay % inhib.): 20% | IC50 (r-NAAA): 900 nM

C[C@H]1NC(=O)[C@H]1NC(=O)OCCCCC1CCCCC1 [Example 76, 4-Cyclohexylbutyl-N-[(2R,3S)-2-methyl-4-oxo-azetidin-3-yl]-carbamate]
inhibition at 10 µM (Rat AC (r-AC); [1]): 5% | IC50 (r-NAAA): 87000 nM
